Measurements: patent publication US7452977B2, “Antibody to a kinase capable of site-specific phosphorylation of IκBα” (Millennium Pharmaceuticals, Inc., priority 1996, dated 2008)
Values belong to the molecule of their own block, whether it stands above or below them.

Columns and labels:
NF-κB = test: Activation of NF-κB in vivo by agonists; type: cell-based; details: agonists including PMA and ionomycin, TNF-α, and LPS
IκBα kinase [1] = target: T1, IκBα kinase (Homo sapiens, UniProt O14920+O15111); test: ELISA-based IκBα kinase assay (ELISA scheme 1), MEKK1-activated partially purified kinase; type: biochemical; details: 10 μM inhibitor added to activated kinase before the biotinylated peptide substrate
T1 construct: IC50 against IκBα kinase activity; FI; Km of IκBα kinase for ATP
Description: IκBα kinase was prepared by first diluting S-100 HeLa cell extracts [1:10] with 50 mM HEPES pH 7.6 and 40% ammonium sulfate was added for 30 minutes on ice. Collected pellet was redissolved to a minimum volume, centrifuged, and filtered through a 0.22 μm filter. Sample was loaded onto a Superose-6 FPLC column equilibrated with 50 mM HEPES pH 7.6. 25 mM NaCl, 1 mM DTT, operated at 4° C. at 1 mL/min flow rate. Fractions were assayed for activity by the gel-shift assay. Active fractions peaked at ˜700 kD were collected, pooled, and protein concentration was determined.
ELISA scheme 1—Biotinylated peptide substrate at 500 μM was incubated with partially purified kinase alone, with 30 nM MEKK1Δ alone, or in combination for 2 hrs at 37° C. with 2.5 mM ATP, 10 mM DTT, 5 μM okadaic acid in the presence or absence of inhibitor. Kinase reactions were quenched by diluting [1:50] with PBS-BTE (PBS, 0.1% BSA, 0.05% Tween-20, 20 mM EDTA). […] Color development was performed with o-phenylenediamine dihydrochloride (Sigma FAST o-PD) and signals were recorded at 450 nm. Alternatively, peroxidase reaction was quenched with 3 N HCl and signals were read at 492 nm.
When control primary antibody which recognizes all IκBα species was used, all samples containing biotinylated peptide substrate produced peroxidase activity as detected by the o-PD conversion. […]

IκBα kinase [2] = test: Phosphorylation of IκBα by partially purified IκBα kinase (gel-based); type: biochemical, human
Description: Unless otherwise indicated, phosphorylation of IκBα was usually carried out at 37° C. for 1 hour in a reaction volume of 10 μl containing: an ATP regenerating system (50 mM Tris-HCl, pH 7.6, 5 mM MgCl2, 2 mM ATP, 10 mM creatine phosphate, 3.5 units/ml creatine kinase, 0.6 units/ml inorganic pyrophosphatase), 0.5 μl of in vitro translated ^35S-labeled IκBα, 2 μg/ml of recombinant RelA homodimer (to form complex with IκBα), 3 μM okadaic acid, 60 μM ubiquitin, 50 nM E1 (rabbit), 1 μM UBC4 (yeast) or GST-UBCh5 (human), and 0.5-3 μl of IκBα kinase containing fractions. In some experiments, HeLa fraction I (1 mg/ml) was used as a source of E2s. At the end of each reaction, SDS sample buffer was added to quench the reaction, and the samples were analyzed by SDS-PAGE (9%) followed by flourography. Phosphorylation of IκBα was quantitated by PhosphorImager analysis. Ubiquitination of IκBα has been described previously (Chen, Z. J. et al., Genes & Dev. 9:1586-1597 (1995)).

IκBα [3] = test: Phosphorylation and ubiquitination of 35S-labeled IκBα in HeLa cell cytoplasmic extracts with okadaic acid; type: biochemical, human; details: 10 μM; in the presence of okadaic acid; FIG. 9
Description: ^35S-labeled IκBα was synthesized by in vitro translation, and used as a substrate for phosphorylation (bottom panel, short exposure) and ubiquitination (top panel, long exposure) assays in HeLa cell cytoplasmic extracts in the presence of okadaic acid (Chen et al., Genes and Dev. 9:1586-1597 (1995)). Various agents were included in the reaction to test their ability to inhibit the phosphorylation and ubiquitination of IκBα.

IκBα [4] = details: previously shown (Beg 1993; Henkel 1993; Sun 1993); cited from earlier work
IκBα kinase [5] = target: T1, IκBα kinase; test: Polypeptide inhibition of 35S-IκBα phosphorylation by IκBα kinase (gel-based); type: biochemical; details: ubiquitination-activated kinase, 37° C., 40 min, FIG. 20
Description: An N-terminal fragment (residues 5-72) of IκBα was expressed in E. coli as a recombinant protein containing a poly-histidine (His6) tag at the N-terminus.Protein purification was accomplished by nickel affinity chromatography. As a control, the full-length IκBα (SEQ ID NO:9; Haskill (1991) Cell 65:1281) was also expressed and purified in a similar fashion.
Recombinant full-length IκBα or IκBα (5-72) was added at indicated concentration to 10 μl of reaction mixture containing an ATP regenerating system (50 mM Tris at pH 7.6, 5 mM MgCl2, 2 mM ATP, 10 mM phosphocreatine, 3.5 U/ml creatine phosphokinase, 0.6 U/ml inorganic pyrophosphatase), 60 μM Ubiquitin, 50 nM E1, 1 μM UBC4, 0.5 μl of in vitro translated ^35S-IκBα, 0.5 μl of IκBα kinase (fraction 19 from Superdex 200 column), and 3 μM okadaic acid. After incubation at 37° C. for 40 min., the reaction was quenched by the addition of SDS sample buffer, separated by electrophoresis on 9% SDS-polyacrylamide gel, and then analyzed by fluorography.

T1 sequence (O14920 whole entry): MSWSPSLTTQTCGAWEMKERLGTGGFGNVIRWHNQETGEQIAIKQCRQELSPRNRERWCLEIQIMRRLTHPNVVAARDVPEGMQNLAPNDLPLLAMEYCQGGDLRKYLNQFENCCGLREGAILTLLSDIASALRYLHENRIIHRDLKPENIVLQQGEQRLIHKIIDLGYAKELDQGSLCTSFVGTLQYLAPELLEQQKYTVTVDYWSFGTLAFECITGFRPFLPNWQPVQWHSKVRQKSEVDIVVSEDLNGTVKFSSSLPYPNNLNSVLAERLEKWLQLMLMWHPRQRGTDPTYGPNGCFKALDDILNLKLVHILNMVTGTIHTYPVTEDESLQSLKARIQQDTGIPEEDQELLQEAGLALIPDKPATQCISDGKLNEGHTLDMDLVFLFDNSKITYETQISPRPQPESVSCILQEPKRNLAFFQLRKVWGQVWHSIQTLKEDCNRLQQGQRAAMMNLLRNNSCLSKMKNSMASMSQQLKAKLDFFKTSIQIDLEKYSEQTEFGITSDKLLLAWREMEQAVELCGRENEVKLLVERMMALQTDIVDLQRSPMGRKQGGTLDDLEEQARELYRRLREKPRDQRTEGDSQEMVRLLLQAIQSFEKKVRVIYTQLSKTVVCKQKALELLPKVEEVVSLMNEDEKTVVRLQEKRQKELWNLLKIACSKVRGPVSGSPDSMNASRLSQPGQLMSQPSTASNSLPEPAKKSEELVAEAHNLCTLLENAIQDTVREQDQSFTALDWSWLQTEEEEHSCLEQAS
T1 sequence (O15111 whole entry): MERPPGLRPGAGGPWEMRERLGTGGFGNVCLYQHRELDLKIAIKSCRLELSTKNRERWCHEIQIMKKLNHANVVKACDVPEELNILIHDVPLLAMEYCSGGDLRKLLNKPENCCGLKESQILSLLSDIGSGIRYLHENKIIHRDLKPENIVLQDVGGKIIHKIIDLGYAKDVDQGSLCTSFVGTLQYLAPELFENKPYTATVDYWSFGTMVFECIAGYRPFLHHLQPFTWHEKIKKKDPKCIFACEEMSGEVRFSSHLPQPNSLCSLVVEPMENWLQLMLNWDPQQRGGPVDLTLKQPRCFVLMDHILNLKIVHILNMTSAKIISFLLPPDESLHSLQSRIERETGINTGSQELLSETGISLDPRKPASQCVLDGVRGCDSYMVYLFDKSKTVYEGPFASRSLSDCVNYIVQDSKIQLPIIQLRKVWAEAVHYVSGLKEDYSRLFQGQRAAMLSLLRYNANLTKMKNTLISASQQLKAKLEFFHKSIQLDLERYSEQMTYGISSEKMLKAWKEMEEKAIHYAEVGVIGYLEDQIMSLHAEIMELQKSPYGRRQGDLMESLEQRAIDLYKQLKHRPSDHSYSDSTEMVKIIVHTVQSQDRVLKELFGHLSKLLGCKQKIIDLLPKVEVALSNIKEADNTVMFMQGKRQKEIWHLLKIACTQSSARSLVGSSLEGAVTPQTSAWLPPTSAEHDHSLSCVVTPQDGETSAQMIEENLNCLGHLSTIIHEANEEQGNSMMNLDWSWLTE
T1 sequence (Q9Y6K9 whole entry partner): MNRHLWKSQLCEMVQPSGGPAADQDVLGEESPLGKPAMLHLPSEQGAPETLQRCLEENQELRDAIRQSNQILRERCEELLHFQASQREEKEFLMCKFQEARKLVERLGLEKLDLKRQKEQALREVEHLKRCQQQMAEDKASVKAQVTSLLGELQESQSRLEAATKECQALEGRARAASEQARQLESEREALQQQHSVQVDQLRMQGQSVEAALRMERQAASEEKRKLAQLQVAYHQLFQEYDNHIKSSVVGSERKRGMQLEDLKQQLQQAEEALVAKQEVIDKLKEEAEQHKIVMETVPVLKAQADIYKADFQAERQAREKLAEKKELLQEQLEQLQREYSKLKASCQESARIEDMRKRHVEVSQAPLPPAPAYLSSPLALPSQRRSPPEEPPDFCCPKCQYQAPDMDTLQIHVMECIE

Molecule: COC(=O)[C@@]1(O)C[C@H]2O[C@]1(C)n1c3ccccc3c3c4c(c5c6ccccc6n2c5c31)C(=O)NC4 [K252a]
- inhibition of the activation of NF-κB in vivo (NF-κB): inhibit the activation of NF-κB in vivo
- inhibition of MEKK1 dependent kinase activity (IκBα kinase [1]): fully inhibited
- inhibition of phosphorylation of IκBα by partially purified IκBα kinase (IκBα kinase [2]): inhibits
- inhibition of phosphorylation and ubiquitination of IκBα in HeLa cell extracts (IκBα [3]): Inhibit

Molecule: N-tosyl-L-phenylalanine chloromethyl ketone [TPCK]
- inhibition of phosphorylation and degradation of IκBα in vivo (IκBα [4]): inhibit

Molecule: Cc1ccc(S(=O)(=O)N[C@@H](CCCCN)C(=O)CCl)cc1 [TLCK, Nα-p-tosyl-L-lysine chloromethyl ketone]
- inhibition of phosphorylation and degradation of IκBα in vivo (IκBα [4]): inhibit

- inhibition of phosphorylation of 35S-IκBα by purified IκBα kinase (IκBα kinase [5]): inhibition
B1: full-length IκBα: recombinant full-length IκBα (SEQ ID NO:9), expressed and purified as control (protein, listed as Homo sapiens)
chain: MFQAAERPQEWAMEGPRDGLKKERLLDDRHDSGLDSMKDEEYEQMVKELQEIRLEPQEVPRGSEPWKQQLTEDGDSFLHLAIIHEEKALTMEVIRQVKGDLAFLNFQNNLQQTPLHLAVITNQPEIAEALLGAGCDPELRDFRGNTPLHLACEQGCLASVGVLTQSCTTPHLHSILKATNYNGHTCLHLASIHGYLGIVELLVSLGADVNAQEPCNGRTALHLAVDLQNPDLVSLLLKCGADVNRVTYQGYSPYQLTWGRPSTRIQQQLGQLTLENLQMLPESEDEESYDTESEFTEFTEDELPYDDCVFGGQRLTL

- inhibition of phosphorylation of 35S-IκBα by purified IκBα kinase (IκBα kinase [5]): inhibition
- inhibition of phosphorylation of 35S-IκBα by purified IκBα kinase (IκBα kinase [5]; listed as amino acid residues 5-72 of IκBα): selectively inhibits
B2: IκBα (5-72): N-terminal fragment (residues 5-72) of IκBα, recombinant from E. coli with N-terminal His6 tag (protein)
chain: HHHHHHAERPQEWAMEGPRDGLKKERLLDDRHDSGLDSMKDEEYEQMVKELQEIRLEPQEVPRGSEPWKQQLTE
